Reference: publication PMC12135518 (Antimicrobial Agents and Chemotherapy, 2025)
Read-outs that look alike come from different tables or passages of the source.

How the values were obtained:
[1] = cited from earlier work
MRSA = details: patients achieving AUC24h/MIC ≥900; cited from earlier work
plasma albumin = details: ref not given; cited from earlier work
Source text: After that, a suitable maintaining dose should be employed to sustain the target concentration.

[2] = Population pharmacokinetic modeling of teicoplanin plasma concentrations (two-compartment model, Phoenix NLME, FOCE-ELS); type: in vivo, renal transplant patients
Protocol: This prospective study was conducted at the kidney transplantation department in the Second Xiangya Hospital of Central South University (Changsha, China). […] The exclusion criteria were as follows: (i) lack any of the demographic and laboratory data described below, (ii) unable to get the blood samples, and (iii) pregnancy. This study was approved by the Ethics Committee of the Second Xiangya Hospital, Central South University, and informed consent was obtained from all patients or legal representatives of the patients. The study employed a two-phase enrollment design to establish and validate the population PK model. Initial model development utilized patient data collected between January 2022 and December 2023. Following the establishment of the final population PK model, a distinct cohort of patients was prospectively recruited between November 2024 and March 2025 to conduct an external validation.
The supernatant was immediately stored at −80℃ until analysis.
Plasma samples (200 µL) were extracted by protein precipitation with MARG-1A (500 µL), after vortex oscillation for 1 minute, centrifugation at 14,500 r/min for 8 min, and 600 µL of the clear supernatant was transferred into autosampler vials for further analysis.
One-, two-, and three-compartment models with first-order elimination were evaluated as potential structural PK models based on changes in the objective function value (OFV, −2 × log-likelihood) and goodness-of-fit plots. The inter-individual variability of the PK parameters was evaluated using an exponential model. Residual variability was selected with additive, proportional, and combined error models:
The following patient covariates were tested for their influence on the PK parameters of teicoplanin: age, sex, body weight, ALT, AST, TBIL, DBIL, ALB, baseline, and real-time CrCL. The stepwise covariate modeling (SCM) approach was used to test the covariate model in this analysis. A reduction in OFVs of ≥3.84 was considered to be statistically significant (P < 0.05) for the inclusion of one covariate in the forward inclusion steps, and an increase in OFVs of ≥6.63 was considered to be statistically significant (P < 0.01) in the backward elimination steps.
The validity of the final model was assessed by visual inspection of goodness-of-fit (GoF) plots, including observed concentrations versus individual predictions (IPRED), observed concentrations versus population predictions (PRED), and conditional weighted residuals (CWRES) versus population predictions and time. Next, the accuracy and stability of the final model were evaluated using the bootstrap method. The medians and 95% confidence intervals of the PK parameter estimates were obtained from the 1,000 bootstrap runs. The model was considered stable if the typical population values for the PK parameters of the final model were within the 95% confidence interval of the bootstrap results, and the biases were less than 10% with no bias across zero.

[3] = at equivalent dosages, cited from earlier work
Source text: Different pharmacokinetic characteristics are anticipated in renal transplant patients depending on the unique physiologic status of these patients ([18], [19]). Moreover, in the early postoperative phase following kidney transplantation, patients undergo gradual recovery of renal function, accompanied by increased urine output and a rapid decline in serum creatinine levels, typically returning to normal within 2–4 weeks ([20][–][22]). […] In addition, renal transplant patients are mor ...

[4] = renal transplant patients, 306 plasma samples from 79 patients

## teicoplanin
[1]; mostly critically ill patients
  distribution (volume) in previous models: 60.5 to 121.1 L
[1]; previously reported values, critically ill patients, no ref printed at the value
  CL in critically ill patients: 0.838 to 1.03 L/h
MRSA
  treatment success rate: 87%
Plasma albumin
  plasma protein binding rate: about 90%
[2]; bootstrap method (n = 992)
  CL, bootstrap estimate (median): 0.714 L/h
  CLd, bootstrap estimate (median): 4.22 L/h
  CrCLCL, bootstrap estimate (median): 0.196
  Vc, bootstrap estimate (median): 11.3 L
  Vp, bootstrap estimate (median): 35 L
[2]; renal transplant patients
  distribution (volume) in the present model: 46.6 L
[2]; [4]
  CLd, clearance between the central compartment and peripheral compartment (final model estimate): 4.22 L/h
  Vc, volume distribution in the central compartment (final model estimate): 11.3 L
  Vp, volume in the peripheral compartment (final model estimate): 35.3 L
[2]; renal transplant patients, iv 400 mg q12h x3 then 400 mg once daily, 1 h infusion, 306 plasma samples from 79 patients, 2LC-MS/MS, CL=0.711×(CrCL÷17)^0.198
  CL, clearance in the central compartment (final model estimate, typical value): 0.711 L/h

## polymyxin B
[3]; other patients
  incidence of neurological toxicity: 27%
  incidence of pigment toxicity: 15%
[3]; renal transplant patients
  incidence of neurological toxicity: 63.4%
  incidence of pigment toxicity: 51.5%
